According to US6720480B2, “Maize proteinase inhibitor-like polynucleotides and defense-activated promoter, transformed plants, and methods of use” (Pioneer Hi-Bred International, Inc., priority 2000, dated 2004):
Values joined by “and” are separate entries in the source; they are usually repeats but may differ in a detail not shown here. Identical values can stand only once.

Experiments:
[1] = test system: nucleotide sequences operably linked to the proteinase inhibitor-like promoter; conditions: HC-toxin 1 μg/ml; Northern analysis, average of 3 repeated experiments
[2] = test system: zmBBI1::GUS (proteinase inhibitor-like promoter); assay: Co-bombardment of maize immature embryos with zmBBI1::GUS, GUS fluorometric assay after chemical treatment; type: cell-based; conditions: for normalized promoter activity (GUS/Luci), Table 2b: Lucif adj for SA (/0.38); for normalized promoter activity (GUS/Luci), Table 2a: luciferase of sample with no chemicals; for GUS/Luci: Lucif adj for SA and JA (Luci for none); for GUS/Luci / GUS pmol MU/min/ml extract (ave) / GUS pmol MU/min/ml extract (ave), less backg 45.6: Rep 1 and 2; for GUS pmol MU/min/ml extract (ave) / GUS pmol MU/min/ml extract (ave), less backg 45.6: SA 1 mM, JA 0.1 mM; for GUS pmol MU/min/ml extract (ave): 20 h; for GUS pmol MU/min/ml extract (ave), less backg 45.6: second GUS column without own head
Description: The activity of the promoter was also studied in the presence of the putative defense activator, zmNPR1. Specifically, maize immature embryos (IE) were co-bombarded with the zmBBI1::GUS construct along with Act::luciferease as an internal standard and either a carrier DNA or an putative defense activators, zmNPR1 (U.S. patent application Ser. No. 09/551,778, filed Apr. 18, 2000, herein incorporated by reference). Particle preparation and DNA coating were carried out as described by Zhang et al.((2000) Plant Cell Reports 19:241-250) except for use of tungsten (1.0 μm) particles and different amounts of DNA: 50 μl zmBBI1::GUS at 0.02 μg/μl, Act::luciferase at 0.1 μg/μl, and 5 μl of the carrier or activator DNA at 1.0 μg/μl. The amount of DNA delivered for each bombardment were 0.33, 0.17, and 1.67 μg for zmBBI1::GUS, Act::luciferase, and the carrier or activator, respectively. The DNA concentration for zmBBI1::GUS was chosen in previous experiments for low background expression. A total of 45 IEs were used for each bombardment. IEs were placed on the osmotic medium (Vain et al. (1993) Plant Cell Reports 12:84-88) for 4 h before bombardment. The distance from the stopping screen to the target was 10 cm and bombardment was done at 650 psi with a PDS 1000/He device (Bio-Rad Laboratories).
After the bombardment the IEs were cultured on the same osmotic medium for 20-24 hr. Subsequently, the 45 IEs were randomly divided into three groups, 15 IEs for each. They were, then, transferred to three new petri dishes (60×25 mm) for chemical treatments. A piece of filter paper had been placed in each petri dish and wetted with 1.25 ml of 560Y liquid medium containing no chemical, 1 mM SA and 0.1 mM JA, respectively. The IEs were cultured again for another 20 h.
Three IEs from each group were then histochemically stained in X-Gluc staining solution (McCabe et al. (1988) Bio/Technology 6:923-926) for overnight at 37° C. The rest of the IEs were subjected to GUS fluorometric and luciferase assays. Fluorometric measurements of GUS activity were performed by using 50 μl protein extract prepared from the 12 IEs of each treatment and quantified in Fluoroskan Ascent FL (Labsystem) for two time points, 10 and 30 min. Luciferase activity was quantified in a Monolight 2010 (Analytical Luminescence Lab) by mixing 20 μl of protein extract with 100 μl of reaction buffer (Dual-Luciferase Reporter Assay System, Promega) and taking the measurements after 10 s. […]

Row | SMILES | increase in expression level of the reporter sequence linked to the promoter [1] | normalized promoter activity (GUS/Luci), Table 2b ([2]; Rep 1, NPR1+) | normalized promoter activity (GUS/Luci), Table 2a ([2]; Rep 1, NPR1+) | normalized promoter activity (GUS/Luci), Table 2b ([2]; Rep 1, NPR1−) | normalized promoter activity (GUS/Luci), Table 2a ([2]; Rep 1, NPR1−) | normalized promoter activity (GUS/Luci), Table 2b ([2]; Rep 2, NPR1+) | normalized promoter activity (GUS/Luci), Table 2a ([2]; Rep 2, NPR1+) | normalized promoter activity (GUS/Luci), Table 2b ([2]; Rep 2, NPR1−) | normalized promoter activity (GUS/Luci), Table 2a ([2]; Rep 2, NPR1−) | GUS/Luci ([2]; zmNPR1 N) | GUS pmol MU/min/ml extract (ave) ([2]; zmNPR1 N) | GUS pmol MU/min/ml extract (ave), less backg 45.6 ([2]; zmNPR1 N) | GUS/Luci ([2]; zmNPR1 Y) | GUS pmol MU/min/ml extract (ave) ([2]; zmNPR1 Y) | GUS pmol MU/min/ml extract (ave), less backg 45.6 ([2]; zmNPR1 Y) | expression of sequence operably linked to the proteinase inhibitor-like promoter (in words) ([2]; maize immature embryos co-bombarded with zmBBI1::GUS)
1 | C[C@@H]1NC(=O)[C@H]2CCCN2C(=O)[C@H](CCCCCC(=O)[C@@H]2CO2)NC(=O)[C@@H](C)NC1=O [HC-toxin] | 2 fold | – | – | – | – | – | – | – | – | – | – | – | – | – | – | –
2 | CC/C=C\C[C@H]1C(=O)CC[C@@H]1CC(=O)O [JA, jasmonic acid] | – | 3.39 | 3.19 | 8.73 | 6.5 | 3.54 | 3.19 | 11.42 | 11.74 | 11.74 and 6.50 | 62.22 pmol MU/min/ml extract and 58.61 pmol MU/min/ml extract | 16.62 pmol MU/min/ml extract and 13.01 pmol MU/min/ml extract | 3.19 | 55.25 pmol MU/min/ml extract and 54.57 pmol MU/min/ml extract | 9.65 pmol MU/min/ml extract and 8.97 pmol MU/min/ml extract | –
3 | O=C(O)c1ccccc1O [SA, salicylic acid] | – | 13.95 | 20.12 | 34.87 | 38.35 | 14.91 | 19.22 | 31.15 | 40.51 | 40.15 and 38.35 | 102.94 pmol MU/min/ml extract and 122.31 pmol MU/min/ml extract | 57.34 pmol MU/min/ml extract and 76.71 pmol MU/min/ml extract | 20.12 and 19.22 | 106.54 pmol MU/min/ml extract and 99.71 pmol MU/min/ml extract | 60.94 pmol MU/min/ml extract and 54.11 pmol MU/min/ml extract | induces expression
